Test results as given in patent publication US8785457B2 (Cellzome Limited, priority 2009, dated 2014).
Where two headings read alike, the source gives them in different places.

Columns and labels:
PI3K delta (PI3 Kd) = biological target: T1, PI3K delta (PI3 Kd) (Homo sapiens, UniProt O00329); test: kinobeads assay, PI3K delta; format: binding; conditions: kinobeads assay, read-out: Inhibition values (IC50) PI3Kd
T1 construct: endogenous in cells; host or cells: Jurkat, clone E6-1 (ATCC TIB-152) cell lysate
Procedure, shortened: (§1)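 Competitive binding in Jurkat cell lysate (5 mg/ml total protein): test compounds at various concentrations competed with beads bearing immobilized phenylmorpholin-chromen ligand. Bead-bound kinases were eluted and quantified by antibody dot blot with infrared detection; IC50 values came from dose-response curves.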

[1] = biological target: T2, DNA-dependent protein kinase (DNA-PK) (Homo sapiens, UniProt P78527); test: kinobeads assay, DNA-PK; format: binding; conditions: kinobeads assay
T2 construct: endogenous in cells; host or cells: Jurkat, clone E6-1 (ATCC TIB-152) cell lysate
T2 sequence (P78527 whole entry): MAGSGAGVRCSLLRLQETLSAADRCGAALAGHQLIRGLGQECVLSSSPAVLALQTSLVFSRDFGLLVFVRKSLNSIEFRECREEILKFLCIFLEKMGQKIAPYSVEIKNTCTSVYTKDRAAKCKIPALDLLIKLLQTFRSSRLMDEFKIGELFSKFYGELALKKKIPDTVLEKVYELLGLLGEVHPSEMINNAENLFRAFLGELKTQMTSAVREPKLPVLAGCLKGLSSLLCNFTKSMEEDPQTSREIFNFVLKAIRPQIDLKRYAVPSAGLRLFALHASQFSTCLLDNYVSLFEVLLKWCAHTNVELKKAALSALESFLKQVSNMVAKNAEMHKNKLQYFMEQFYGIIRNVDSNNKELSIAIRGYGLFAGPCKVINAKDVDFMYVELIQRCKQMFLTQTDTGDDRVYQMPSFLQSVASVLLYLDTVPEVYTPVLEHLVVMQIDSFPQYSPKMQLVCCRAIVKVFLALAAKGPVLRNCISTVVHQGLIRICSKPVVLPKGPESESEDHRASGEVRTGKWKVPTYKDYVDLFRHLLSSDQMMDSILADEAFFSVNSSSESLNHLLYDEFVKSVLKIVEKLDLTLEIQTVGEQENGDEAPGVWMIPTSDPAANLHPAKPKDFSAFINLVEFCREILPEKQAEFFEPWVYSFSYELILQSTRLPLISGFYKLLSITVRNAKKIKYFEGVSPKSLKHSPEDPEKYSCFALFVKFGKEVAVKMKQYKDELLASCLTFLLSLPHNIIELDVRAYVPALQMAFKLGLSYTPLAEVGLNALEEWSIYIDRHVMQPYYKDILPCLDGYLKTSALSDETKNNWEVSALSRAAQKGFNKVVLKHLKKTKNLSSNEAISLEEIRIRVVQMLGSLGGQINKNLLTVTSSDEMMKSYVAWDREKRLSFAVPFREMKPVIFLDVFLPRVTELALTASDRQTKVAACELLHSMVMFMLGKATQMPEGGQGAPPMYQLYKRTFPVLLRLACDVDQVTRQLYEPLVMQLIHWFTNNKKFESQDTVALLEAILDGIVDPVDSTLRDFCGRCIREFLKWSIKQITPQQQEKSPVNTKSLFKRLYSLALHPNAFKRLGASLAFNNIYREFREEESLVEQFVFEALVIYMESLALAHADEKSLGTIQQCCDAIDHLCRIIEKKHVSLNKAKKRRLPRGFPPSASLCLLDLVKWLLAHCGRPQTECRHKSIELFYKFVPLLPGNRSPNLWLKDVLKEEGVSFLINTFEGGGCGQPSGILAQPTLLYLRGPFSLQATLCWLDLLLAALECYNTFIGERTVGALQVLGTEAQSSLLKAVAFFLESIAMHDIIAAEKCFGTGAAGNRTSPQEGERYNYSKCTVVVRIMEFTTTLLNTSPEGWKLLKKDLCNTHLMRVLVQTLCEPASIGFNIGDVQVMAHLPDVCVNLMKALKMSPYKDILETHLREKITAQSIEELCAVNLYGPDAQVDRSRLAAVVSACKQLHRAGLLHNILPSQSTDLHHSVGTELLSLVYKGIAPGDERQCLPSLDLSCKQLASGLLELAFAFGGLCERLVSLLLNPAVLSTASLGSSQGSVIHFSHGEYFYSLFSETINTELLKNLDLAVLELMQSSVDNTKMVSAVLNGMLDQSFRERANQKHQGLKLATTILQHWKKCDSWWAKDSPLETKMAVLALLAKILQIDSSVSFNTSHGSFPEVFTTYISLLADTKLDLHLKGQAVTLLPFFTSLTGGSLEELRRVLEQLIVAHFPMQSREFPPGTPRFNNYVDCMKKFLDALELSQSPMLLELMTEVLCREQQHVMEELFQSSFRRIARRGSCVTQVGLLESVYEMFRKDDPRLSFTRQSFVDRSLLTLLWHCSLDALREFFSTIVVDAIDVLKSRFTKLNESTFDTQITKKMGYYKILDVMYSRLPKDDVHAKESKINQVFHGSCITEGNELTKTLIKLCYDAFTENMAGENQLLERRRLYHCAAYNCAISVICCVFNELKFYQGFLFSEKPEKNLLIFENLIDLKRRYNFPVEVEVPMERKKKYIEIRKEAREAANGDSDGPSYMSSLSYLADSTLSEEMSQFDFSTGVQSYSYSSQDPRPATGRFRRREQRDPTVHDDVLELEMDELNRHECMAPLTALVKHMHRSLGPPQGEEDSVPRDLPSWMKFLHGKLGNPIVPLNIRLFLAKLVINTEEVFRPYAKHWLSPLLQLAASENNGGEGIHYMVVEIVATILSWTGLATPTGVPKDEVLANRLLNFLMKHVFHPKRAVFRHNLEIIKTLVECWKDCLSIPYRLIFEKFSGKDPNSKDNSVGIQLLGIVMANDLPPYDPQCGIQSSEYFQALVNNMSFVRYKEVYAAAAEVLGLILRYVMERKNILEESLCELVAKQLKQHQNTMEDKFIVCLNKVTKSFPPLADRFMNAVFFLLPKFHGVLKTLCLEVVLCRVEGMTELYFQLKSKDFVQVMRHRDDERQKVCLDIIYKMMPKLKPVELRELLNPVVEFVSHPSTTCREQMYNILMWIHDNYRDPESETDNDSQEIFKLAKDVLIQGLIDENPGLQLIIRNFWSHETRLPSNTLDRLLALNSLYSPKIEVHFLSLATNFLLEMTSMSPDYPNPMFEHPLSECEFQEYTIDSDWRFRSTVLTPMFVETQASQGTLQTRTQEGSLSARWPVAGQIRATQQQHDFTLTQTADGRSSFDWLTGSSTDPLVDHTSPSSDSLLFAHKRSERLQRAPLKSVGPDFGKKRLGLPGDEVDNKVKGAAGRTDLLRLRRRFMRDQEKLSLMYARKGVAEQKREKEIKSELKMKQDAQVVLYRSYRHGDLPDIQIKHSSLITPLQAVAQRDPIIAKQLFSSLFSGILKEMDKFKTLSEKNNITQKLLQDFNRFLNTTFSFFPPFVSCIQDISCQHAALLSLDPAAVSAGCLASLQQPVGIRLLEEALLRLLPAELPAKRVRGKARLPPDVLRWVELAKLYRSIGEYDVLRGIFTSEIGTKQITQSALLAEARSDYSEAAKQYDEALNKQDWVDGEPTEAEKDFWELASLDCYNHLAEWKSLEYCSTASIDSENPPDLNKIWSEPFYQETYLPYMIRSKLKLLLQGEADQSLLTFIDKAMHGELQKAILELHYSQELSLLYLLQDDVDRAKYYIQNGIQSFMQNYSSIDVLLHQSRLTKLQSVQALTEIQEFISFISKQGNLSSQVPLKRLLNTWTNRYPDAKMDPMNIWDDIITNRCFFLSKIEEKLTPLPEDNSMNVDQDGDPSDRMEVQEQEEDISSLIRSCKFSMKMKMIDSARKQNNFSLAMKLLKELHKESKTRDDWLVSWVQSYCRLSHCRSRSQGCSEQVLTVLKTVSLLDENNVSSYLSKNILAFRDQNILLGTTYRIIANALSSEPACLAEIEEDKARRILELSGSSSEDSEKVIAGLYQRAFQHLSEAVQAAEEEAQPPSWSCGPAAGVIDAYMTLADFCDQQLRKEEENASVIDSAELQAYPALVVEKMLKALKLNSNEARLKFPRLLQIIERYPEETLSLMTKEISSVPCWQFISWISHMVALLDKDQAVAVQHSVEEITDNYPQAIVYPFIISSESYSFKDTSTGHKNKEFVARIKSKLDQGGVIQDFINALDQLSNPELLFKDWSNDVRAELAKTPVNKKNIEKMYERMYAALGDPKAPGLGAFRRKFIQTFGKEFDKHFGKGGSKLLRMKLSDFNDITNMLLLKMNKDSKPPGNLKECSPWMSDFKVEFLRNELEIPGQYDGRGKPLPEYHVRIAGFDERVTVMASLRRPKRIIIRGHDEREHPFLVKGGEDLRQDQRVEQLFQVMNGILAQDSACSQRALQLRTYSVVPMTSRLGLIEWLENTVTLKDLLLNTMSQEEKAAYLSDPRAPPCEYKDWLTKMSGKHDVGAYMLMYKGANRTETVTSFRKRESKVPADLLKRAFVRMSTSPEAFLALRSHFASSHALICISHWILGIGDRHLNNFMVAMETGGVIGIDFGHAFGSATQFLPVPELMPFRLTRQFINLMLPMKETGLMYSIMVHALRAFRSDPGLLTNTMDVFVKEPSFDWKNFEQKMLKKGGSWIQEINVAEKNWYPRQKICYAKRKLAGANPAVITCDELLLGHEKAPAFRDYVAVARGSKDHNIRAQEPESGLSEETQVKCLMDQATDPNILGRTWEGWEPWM
Procedure, shortened: as §1

[2] = system: S6RP serine-240/244 phosphorylation; test: In vitro Phospho-S6 cellular assay (pS6RP S240/244) in HEK293T/17 cells; format: cell-based; conditions: Homo sapiens, 2 hours, read-out: pS6 IC50
Description: Activation of mTOR signaling results in phosphorylation of several downstream targets. In cells, mTOR exists in two different protein complexes. The mTOR Complex-1 (mTORC1) phosphorylates and activates S6 Kinase 1 (S6K1) and S6 Kinase 2 (S6K2) (also known as p70S6K) which then phosphorylate S6 Ribosomal Protein (S6RP) (also known as RPS6)3. S6RP is phosphorylated on serine 235, serine 236, serine 240 and serine 244 by both pS6K1 and pS6K2. The mTOR Complex-2 (mTORC2) phosphorylates AKT on serine 473 which activates the AKT signaling pathway.
The assay measures a test compound's inhibition of S6RP serine-240/244 phosphorylation and inhibition of Akt serine-473 phosphorylation in human embryonic kidney derived HEK293T/17 cells (ATCC CRL-11268).
The HEK293T/17 cell line is maintained in DMEM media (Invitrogen catalogue number 41965-039) supplemented with 10% FCS at 37° C. in a 5% CO2 humidified incubator.
Cells are seeded in 96-well plates at 40,000 cells/well (pS6RP S240/244 assay) or 80,000 cells/well (pAkt S473 assay) in 90 μl growth media (DMEM, 2% FCS). Plates are incubated for 1 hour in a humidified incubator to allow the cells to adhere. Cells are treated with 8 concentrations of test compounds or DMSO alone for controls (final DMSO concentration 0.1%) and incubated at 37° C. for 2 hours. Then 20 μl of 5× concentrated lysis buffer (750 mM NaCl, 100 mM Tris pH7.4, 5 mM ADTA, 5 mM EGTA, 5% Triton X-100) is added, plates are sealed and incubated for 15 minutes at 4° C. with gentle shaking. After cell lysis, 25 μl cell lysate is transferred to a MesoScale plate coated with an antibody to pS6RP Ser240/244 (MesoScale Discovery K150DGD-3) or an antibody to pAkt Ser 473 (MesoScale Discovery K151DGD-3). Plates have been blocked before by incubation with 150 μl MesoScale Discovery Blocking Solution-A for 1 hour at room temperature followed by washing with 150 μl 1× Tris wash buffer per well. After the transfer of the cell lysate to the MSD plate, the pS6RP (or pAkt) protein is captured on the coated antibody by incubation at room temperature for 1 hour with gentle shaking. After the capture step the plate is washed three times with 150 μl of 1× Tris wash buffer per well. Then 25 μl detection antibody conjugated with a Sulfo-Tag is added and incubated for 1 hour at room temperature with gentle shaking. Subsequently the antibody solution is removed and the plate is washed 3 times with 150 μl×Tris wash buffer per well and 150 μl Read buffer is added. The plates are analysed on a MSD 2400 Plate Reader (MesoScale Discovery). Data analysis is performed using nonlinear regression for a sigmoidal dose-response with a variable slope.

PI3Kalpha (PI3Ka) = biological target: T3, PI3Kalpha (PI3Ka) (Homo sapiens, UniProt P42336); test: kinobeads assay, PI3Kalpha; format: binding; conditions: kinobeads assay, Table 6
T3 construct: endogenous in cells; host or cells: cell lysate
Procedure, shortened: (§2)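 IC50s are fitted to per-kinase dose-response curves. Kinases retained on phenylmorpholin-chromen affinity beads are read by multiplexed immunodetection after elution. Compound, added at a range of concentrations straight into cell lysate, competes for this bead capture.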

PI3 Kbeta (PI3 Kb) = biological target: T4, PI3 Kbeta (PI3 Kb) (Homo sapiens, UniProt P42338); test: kinobeads assay, PI3Kbeta; format: binding; conditions: kinobeads assay, Table 6; read-out: Inhibition values (IC50) PI3Kb
T4 construct: endogenous in cells; host or cells: cell lysate
Procedure, shortened: as §2

PI3 Kgamma (PI3 Kg) = biological target: T5, PI3 Kgamma (PI3 Kg) (Homo sapiens, UniProt P48736); test: kinobeads assay, PI3Kgamma; format: binding; conditions: kinobeads assay, Table 6; read-out: Inhibition values (IC50) PI3Kg
T5 construct: endogenous in cells; host or cells: cell lysate
Procedure, shortened: as §2

[3] = Table 4, read-out: Inhibition values (IC50) DNA-PK
[4] = Table 6, read-out: Inhibition values (IC50) DNAPK

SMILES	IC50 (PI3K delta (PI3 Kd); Table 4)	IC50 (PI3K delta (PI3 Kd); Table 6)	IC50 [1, 3]	IC50 [1, 4]	IC50 [2]	Inhibition values (IC50) PI3Ka (PI3Kalpha (PI3Ka))	IC50 (PI3 Kbeta (PI3 Kb))	IC50 (PI3 Kgamma (PI3 Kg))	IC50 (PI3Kalpha (PI3Ka); read-out: Inhibition values (IC50) PI3Ka)
CCNC(=O)Nc1ccc(-c2nc3c(c(N4CCOC[C@@H]4C)n2)CN(C(=O)OC(C)(C)C)CC3)cc1 [Example 2, (S)-tert-butyl 2-(4-(3-ethylureido)phenyl)-4-(3-methylmorpholino)-7,8-dihydropyrido[4,3-d]pyrimidine-6(5H)-carboxylate]	> 10 µM	> 10 µM	> 10 µM	> 10 µM	0.122 µM				
CCNC(=O)Nc1ccc(-c2nc3c(c(N4CCOCC4)n2)CN(C(=O)OC(C)(C)C)C3)cc1 [Example 63, tert-butyl 2-(4-(3-ethylureido)phenyl)-4-morpholino-5H-pyrrolo[3,4-d]pyrimidine-6(7H)-carboxylate]	1 to 10 µM	1 to 10 µM	> 10 µM	> 10 µM	0.046 µM				
CCNC(=O)Nc1ccc(-c2nc3c(c(N4CCOC[C@@H]4C)n2)CCN(C(C)C)C3)cc1.O=CO [Example 75, (S)-1-ethyl-3-(4-(7-isopropyl-4-(3-methylmorpholino)-5,6,7,8-tetrahydropyrido[3,4-d]pyrimidin-2-yl)phenyl)urea formate]		> 10 µM		> 10 µM	0.082 µM	D (D >10 μM)	> 10 µM	> 10 µM	
CCNC(=O)Nc1ccc(-c2nc3c(c(N4CCOCC4)n2)CN(C(=O)NCC)C3)cc1 [Example 79, N-ethyl-2-(4-(3-ethylureido)phenyl)-4-morpholino-5H-pyrrolo[3,4-d]pyrimidine-6(7H)-carboxamide]		1 to 10 µM		1 to 10 µM	0.589 µM		> 10 µM	> 10 µM	1 to 10 µM
